Measured values as given in ChEMBL document CHEMBL4507315 (2021).

Legend:
[1] = biological target: Tyrosine-protein kinase Srms (Homo sapiens) (UniProt Q9H3Y6); settings: Compound concentration 100.0 nM
[2] = biological target: MAP kinase-activated protein kinase 2 (Homo sapiens) (UniProt P49137); settings: Compound concentration 100.0 nM
[3] = biological target: Ribosomal protein S6 kinase alpha-1 (Homo sapiens) (UniProt Q15418); settings: Compound concentration 100.0 nM
[4] = biological target: Uncharacterized serine/threonine-protein kinase SBK3 (Homo sapiens) (UniProt P0C264); settings: Compound concentration 100.0 nM
[5] = biological target: SNF-related serine/threonine-protein kinase (Homo sapiens) (UniProt Q9NRH2); settings: Compound concentration 100.0 nM
[6] = biological target: Macrophage colony-stimulating factor 1 receptor (Homo sapiens) (UniProt P07333); settings: Compound concentration 100.0 nM
[7] = biological target: Beta-3 adrenergic receptor (Homo sapiens) (UniProt P13945); settings: Compound concentration 10.0 uM
[8] = biological target: Calcium-dependent protein kinase 1 (Plasmodium falciparum) (UniProt P62344); settings: Compound concentration 100.0 nM
[9] = biological target: Serine/threonine-protein kinase NLK (Homo sapiens) (UniProt Q9UBE8); settings: Compound concentration 100.0 nM
Chain of Serine/threonine-protein kinase NLK (Homo sapiens) (Q9UBE8 whole entry): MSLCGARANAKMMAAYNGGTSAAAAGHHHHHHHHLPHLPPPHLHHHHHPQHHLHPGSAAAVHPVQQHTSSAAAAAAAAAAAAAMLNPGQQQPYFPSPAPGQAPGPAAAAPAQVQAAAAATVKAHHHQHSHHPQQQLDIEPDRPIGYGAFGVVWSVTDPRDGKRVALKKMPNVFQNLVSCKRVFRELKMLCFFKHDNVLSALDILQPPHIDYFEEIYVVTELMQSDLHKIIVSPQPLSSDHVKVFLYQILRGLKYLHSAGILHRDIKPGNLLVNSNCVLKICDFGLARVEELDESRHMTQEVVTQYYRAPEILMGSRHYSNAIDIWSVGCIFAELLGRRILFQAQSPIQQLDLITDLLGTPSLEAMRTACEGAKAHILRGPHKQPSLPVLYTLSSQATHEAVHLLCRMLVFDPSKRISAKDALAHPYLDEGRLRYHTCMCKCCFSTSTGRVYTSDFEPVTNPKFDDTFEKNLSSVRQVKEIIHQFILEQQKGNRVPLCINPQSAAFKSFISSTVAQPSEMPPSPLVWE

[10] = biological target: Serine/threonine-protein kinase MAK (Homo sapiens) (UniProt P20794); settings: Compound concentration 100.0 nM
[11] = biological target: Alpha-2A adrenergic receptor (Homo sapiens) (UniProt P08913); settings: Compound concentration 10.0 uM
[12] = system: Epidermal growth factor receptor (Homo sapiens), P00533 [G719C]; settings: Compound concentration 100.0 nM
[13] = biological target: Casein kinase I isoform gamma-1 (Homo sapiens) (UniProt Q9HCP0); settings: Compound concentration 100.0 nM
[14] = biological target: Casein kinase I isoform alpha-like (Homo sapiens) (UniProt Q8N752); settings: Compound concentration 100.0 nM
[15] = biological target: Dual specificity testis-specific protein kinase 1 (Homo sapiens) (UniProt Q15569); settings: Compound concentration 100.0 nM
Chain of Dual specificity testis-specific protein kinase 1 (Homo sapiens) (Q15569 whole entry, looked up): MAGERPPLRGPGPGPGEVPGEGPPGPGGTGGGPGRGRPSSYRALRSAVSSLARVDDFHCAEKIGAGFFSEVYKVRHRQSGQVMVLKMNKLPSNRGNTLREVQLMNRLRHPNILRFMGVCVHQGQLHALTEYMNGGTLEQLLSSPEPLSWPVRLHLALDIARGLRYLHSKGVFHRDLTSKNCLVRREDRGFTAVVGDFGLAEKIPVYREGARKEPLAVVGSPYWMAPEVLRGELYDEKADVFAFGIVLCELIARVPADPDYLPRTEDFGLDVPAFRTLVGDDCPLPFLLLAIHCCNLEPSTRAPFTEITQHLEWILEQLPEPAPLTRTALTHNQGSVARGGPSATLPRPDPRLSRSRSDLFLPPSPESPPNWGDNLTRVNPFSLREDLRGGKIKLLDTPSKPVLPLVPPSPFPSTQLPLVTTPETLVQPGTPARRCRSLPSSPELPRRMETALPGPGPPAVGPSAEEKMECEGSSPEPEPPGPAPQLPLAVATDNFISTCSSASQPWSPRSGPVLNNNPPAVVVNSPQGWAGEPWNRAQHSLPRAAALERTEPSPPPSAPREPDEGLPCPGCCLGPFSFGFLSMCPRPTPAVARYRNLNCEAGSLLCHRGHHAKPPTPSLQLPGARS

[16] = biological target: Cyclin-dependent kinase 16 (Homo sapiens) (UniProt Q00536); settings: Compound concentration 100.0 nM
[17] = biological target: Serine/threonine-protein kinase DCLK3 (Homo sapiens) (UniProt Q9C098); settings: Compound concentration 100.0 nM
Chain of Serine/threonine-protein kinase DCLK3 (Homo sapiens) (Q9C098 whole entry): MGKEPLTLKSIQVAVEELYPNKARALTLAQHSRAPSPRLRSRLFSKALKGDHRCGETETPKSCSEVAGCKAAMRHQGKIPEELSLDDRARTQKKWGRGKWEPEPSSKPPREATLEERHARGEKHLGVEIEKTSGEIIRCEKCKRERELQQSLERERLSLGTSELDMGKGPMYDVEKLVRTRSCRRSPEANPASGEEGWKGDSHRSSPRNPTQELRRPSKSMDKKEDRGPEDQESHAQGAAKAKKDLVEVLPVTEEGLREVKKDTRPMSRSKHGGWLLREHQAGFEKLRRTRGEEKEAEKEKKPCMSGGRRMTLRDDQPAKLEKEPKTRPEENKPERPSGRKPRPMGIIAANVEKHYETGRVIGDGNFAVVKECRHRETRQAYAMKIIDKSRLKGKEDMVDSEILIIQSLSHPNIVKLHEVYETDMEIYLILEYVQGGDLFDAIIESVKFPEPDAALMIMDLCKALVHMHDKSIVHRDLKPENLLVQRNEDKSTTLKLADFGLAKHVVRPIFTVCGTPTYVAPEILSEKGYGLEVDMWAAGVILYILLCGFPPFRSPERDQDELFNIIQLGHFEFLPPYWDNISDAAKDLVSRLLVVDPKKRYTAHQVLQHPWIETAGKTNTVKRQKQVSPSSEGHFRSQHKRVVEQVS

[18] = biological target: Serine/threonine-protein kinase PRP4 homolog (Homo sapiens) (UniProt Q13523); settings: Compound concentration 100.0 nM
[19] = system: Receptor-type tyrosine-protein kinase FLT3 (Homo sapiens), P36888 [UNDEFINED MUTATION]; settings: Compound concentration 100.0 nM
[20] = biological target: Serine/threonine-protein kinase 16 (Homo sapiens) (UniProt O75716); settings: Compound concentration 100.0 nM
[21] = biological target: Receptor tyrosine-protein kinase erbB-4 (Homo sapiens) (UniProt Q15303); settings: Compound concentration 100.0 nM
[22] = system: Phosphatidylinositol 4,5-bisphosphate 3-kinase catalytic subunit alpha isoform (Homo sapiens), P42336 [E545A]; settings: Compound concentration 100.0 nM
[23] = biological target: TRAF2 and NCK-interacting protein kinase (Homo sapiens) (UniProt Q9UKE5); settings: Compound concentration 100.0 nM
[24] = system: Epidermal growth factor receptor (Homo sapiens), P00533 [T790M]; settings: Compound concentration 100.0 nM
[25] = biological target: Dual specificity mitogen-activated protein kinase kinase 7 (Homo sapiens) (UniProt O14733); settings: Compound concentration 100.0 nM
[26] = biological target: Dual specificity protein kinase CLK3 (Homo sapiens) (UniProt P49761); settings: Compound concentration 100.0 nM
[27] = system: Tyrosine-protein kinase ABL1 (Homo sapiens), P00519 [F317L]; settings: Compound concentration 100.0 nM
[28] = biological target: SRSF protein kinase 1 (Homo sapiens) (UniProt Q96SB4); settings: Compound concentration 100.0 nM
[29] = biological target: Serine/threonine-protein kinase DCLK1 (Homo sapiens) (UniProt O15075); settings: Compound concentration 100.0 nM
[30] = biological target: MAP kinase-interacting serine/threonine-protein kinase 2 (Homo sapiens) (UniProt Q9HBH9); settings: Compound concentration 100.0 nM
[31] = biological target: Ephrin type-A receptor 5 (Homo sapiens) (UniProt P54756); settings: Compound concentration 100.0 nM
Chain of Ephrin type-A receptor 5 (Homo sapiens) (P54756 whole entry): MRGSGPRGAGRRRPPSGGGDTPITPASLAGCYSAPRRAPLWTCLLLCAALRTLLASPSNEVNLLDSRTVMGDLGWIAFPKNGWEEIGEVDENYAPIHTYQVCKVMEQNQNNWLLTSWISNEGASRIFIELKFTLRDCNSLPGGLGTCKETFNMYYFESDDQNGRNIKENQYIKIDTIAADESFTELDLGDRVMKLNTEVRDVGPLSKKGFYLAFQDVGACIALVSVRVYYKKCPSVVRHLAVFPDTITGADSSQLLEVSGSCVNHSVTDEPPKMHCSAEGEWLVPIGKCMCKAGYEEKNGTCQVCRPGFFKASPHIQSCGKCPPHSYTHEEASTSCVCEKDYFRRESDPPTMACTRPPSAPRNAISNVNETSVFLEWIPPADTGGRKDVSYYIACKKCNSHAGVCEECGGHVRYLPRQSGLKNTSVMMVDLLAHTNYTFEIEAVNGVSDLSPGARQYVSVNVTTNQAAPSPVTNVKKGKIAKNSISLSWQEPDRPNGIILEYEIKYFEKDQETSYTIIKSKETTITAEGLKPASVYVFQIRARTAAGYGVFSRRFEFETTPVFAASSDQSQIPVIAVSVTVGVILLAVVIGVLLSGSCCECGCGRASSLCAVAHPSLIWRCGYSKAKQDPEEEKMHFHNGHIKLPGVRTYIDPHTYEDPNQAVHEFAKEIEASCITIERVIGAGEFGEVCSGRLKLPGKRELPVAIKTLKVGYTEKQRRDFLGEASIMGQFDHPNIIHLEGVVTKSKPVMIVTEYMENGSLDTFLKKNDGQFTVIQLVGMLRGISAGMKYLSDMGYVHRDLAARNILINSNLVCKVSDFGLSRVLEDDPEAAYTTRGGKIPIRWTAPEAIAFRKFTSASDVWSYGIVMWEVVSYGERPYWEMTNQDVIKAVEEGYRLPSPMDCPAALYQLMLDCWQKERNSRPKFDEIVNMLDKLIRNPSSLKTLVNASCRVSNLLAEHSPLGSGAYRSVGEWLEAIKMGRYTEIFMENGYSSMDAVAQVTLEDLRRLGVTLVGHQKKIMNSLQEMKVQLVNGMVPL

[32] = biological target: Serine/threonine-protein kinase pim-3 (Homo sapiens) (UniProt Q86V86); settings: Compound concentration 100.0 nM
[33] = biological target: Megakaryocyte-associated tyrosine-protein kinase (Homo sapiens) (UniProt P42679); settings: Compound concentration 100.0 nM
[34] = biological target: RAF proto-oncogene serine/threonine-protein kinase (Homo sapiens) (UniProt P04049); settings: Compound concentration 100.0 nM
[35] = biological target: Rho-associated protein kinase 2 (Homo sapiens) (UniProt O75116); settings: Compound concentration 100.0 nM
Chain of Rho-associated protein kinase 2 (Homo sapiens) (O75116 whole entry, looked up): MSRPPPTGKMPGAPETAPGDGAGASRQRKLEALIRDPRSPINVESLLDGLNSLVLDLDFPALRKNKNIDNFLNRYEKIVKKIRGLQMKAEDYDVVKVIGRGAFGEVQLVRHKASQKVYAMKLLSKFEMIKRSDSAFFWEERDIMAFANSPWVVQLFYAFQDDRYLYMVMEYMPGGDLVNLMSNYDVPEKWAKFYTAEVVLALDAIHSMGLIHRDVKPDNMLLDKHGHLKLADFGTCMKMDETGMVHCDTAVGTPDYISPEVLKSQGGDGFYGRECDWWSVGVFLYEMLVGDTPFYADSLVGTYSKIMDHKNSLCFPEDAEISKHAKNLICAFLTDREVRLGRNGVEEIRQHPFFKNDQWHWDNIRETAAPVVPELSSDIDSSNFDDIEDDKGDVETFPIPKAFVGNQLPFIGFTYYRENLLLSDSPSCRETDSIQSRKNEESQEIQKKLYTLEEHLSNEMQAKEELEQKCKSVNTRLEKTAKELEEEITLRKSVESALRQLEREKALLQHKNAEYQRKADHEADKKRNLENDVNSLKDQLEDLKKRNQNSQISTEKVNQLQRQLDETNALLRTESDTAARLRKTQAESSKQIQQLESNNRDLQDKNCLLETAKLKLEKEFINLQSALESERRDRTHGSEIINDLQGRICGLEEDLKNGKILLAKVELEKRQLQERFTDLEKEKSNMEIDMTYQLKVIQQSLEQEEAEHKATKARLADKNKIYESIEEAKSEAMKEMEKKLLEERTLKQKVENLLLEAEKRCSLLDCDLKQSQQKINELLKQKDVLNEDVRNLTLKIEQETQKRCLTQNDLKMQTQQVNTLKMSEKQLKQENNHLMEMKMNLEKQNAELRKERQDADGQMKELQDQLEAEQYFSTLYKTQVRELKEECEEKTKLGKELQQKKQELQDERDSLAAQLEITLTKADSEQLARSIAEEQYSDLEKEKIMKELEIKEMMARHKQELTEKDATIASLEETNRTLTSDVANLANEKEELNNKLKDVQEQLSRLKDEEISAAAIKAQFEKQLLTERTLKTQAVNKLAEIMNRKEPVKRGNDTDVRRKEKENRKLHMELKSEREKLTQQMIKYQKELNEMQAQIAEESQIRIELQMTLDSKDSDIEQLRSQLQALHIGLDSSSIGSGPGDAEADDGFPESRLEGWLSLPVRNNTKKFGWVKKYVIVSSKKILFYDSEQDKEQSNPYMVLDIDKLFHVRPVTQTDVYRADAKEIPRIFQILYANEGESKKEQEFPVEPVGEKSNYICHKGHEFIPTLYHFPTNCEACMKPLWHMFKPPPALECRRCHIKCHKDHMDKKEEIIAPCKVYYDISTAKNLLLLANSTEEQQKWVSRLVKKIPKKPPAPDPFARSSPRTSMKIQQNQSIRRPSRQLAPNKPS

[36] = system: Receptor-type tyrosine-protein kinase FLT3 (Homo sapiens), P36888 [K663Q]; settings: Compound concentration 100.0 nM
[37] = biological target: Cyclin-dependent kinase 4 (Homo sapiens) (UniProt P11802); settings: Compound concentration 100.0 nM
Chain of Cyclin-dependent kinase 4 (Homo sapiens) (P11802 whole entry): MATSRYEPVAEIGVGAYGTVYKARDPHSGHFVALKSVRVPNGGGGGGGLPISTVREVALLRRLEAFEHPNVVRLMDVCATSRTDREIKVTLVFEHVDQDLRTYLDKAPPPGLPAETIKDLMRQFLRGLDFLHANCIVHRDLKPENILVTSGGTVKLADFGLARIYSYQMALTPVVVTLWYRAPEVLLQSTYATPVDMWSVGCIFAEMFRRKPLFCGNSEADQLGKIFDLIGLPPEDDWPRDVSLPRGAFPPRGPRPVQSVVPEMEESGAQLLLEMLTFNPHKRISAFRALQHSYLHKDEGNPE

[38] = biological target: Mitogen-activated protein kinase kinase kinase 2 (Homo sapiens) (UniProt Q9Y2U5); settings: Compound concentration 100.0 nM
[39] = biological target: High affinity nerve growth factor receptor (Homo sapiens) (UniProt P04629); settings: Compound concentration 100.0 nM
[40] = biological target: Receptor tyrosine-protein kinase erbB-3 (Homo sapiens) (UniProt P21860); settings: Compound concentration 100.0 nM
[41] = biological target: Mu-type opioid receptor (Homo sapiens) (UniProt P35372); settings: Compound concentration 10.0 uM
[42] = biological target: Receptor-interacting serine/threonine-protein kinase 4 (Homo sapiens) (UniProt P57078); settings: Compound concentration 100.0 nM
[43] = biological target: Inhibitor of nuclear factor kappa-B kinase subunit alpha (Homo sapiens) (UniProt O15111); settings: Compound concentration 100.0 nM
[44] = biological target: Misshapen-like kinase 1 (Homo sapiens) (UniProt Q8N4C8); settings: Compound concentration 100.0 nM
[45] = biological target: Ephrin type-A receptor 1 (Homo sapiens) (UniProt P21709); settings: Compound concentration 100.0 nM

Chain of MAP kinase-activated protein kinase 2 (Homo sapiens) (P49137 whole entry, looked up): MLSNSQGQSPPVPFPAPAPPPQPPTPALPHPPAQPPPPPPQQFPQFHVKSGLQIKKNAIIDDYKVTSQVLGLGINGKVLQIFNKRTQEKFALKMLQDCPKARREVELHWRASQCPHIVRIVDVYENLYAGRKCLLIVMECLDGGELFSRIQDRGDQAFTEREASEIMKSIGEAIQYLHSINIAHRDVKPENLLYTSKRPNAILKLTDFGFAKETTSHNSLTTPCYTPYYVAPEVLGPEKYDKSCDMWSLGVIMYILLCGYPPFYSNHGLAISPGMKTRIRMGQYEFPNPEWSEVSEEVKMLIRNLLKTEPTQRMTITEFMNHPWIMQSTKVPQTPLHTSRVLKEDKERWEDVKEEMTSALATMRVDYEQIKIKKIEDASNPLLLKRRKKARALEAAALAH

Nc1c(C(=O)NCc2ccc(C(=O)NCCCC3CCCCC3)cc2)cnn1-c1ccccc1 [SR-318]
active: residual activity [40] 44%
inactive: residual activity [1] 100% | residual activity [2] 100% | residual activity [3] 100% | residual activity [4] 87% | residual activity [5] 91% | residual activity [6] 100% | inhibition [7] 21.8% | residual activity [8] 86% | residual activity [9] 96% | residual activity [10] 100% | inhibition [11] 4.08% | residual activity [12] 85% | residual activity [13] 100% | residual activity [14] 98% | residual activity [15] 100% | residual activity [16] 97% | residual activity [17] 100% | residual activity [18] 100% | residual activity [19] 73% | residual activity [20] 100% | residual activity [21] 89% | residual activity [22] 100% | residual activity [23] 100% | residual activity [24] 100% | residual activity [25] 99% | residual activity [26] 95% | residual activity [27] 100% | residual activity [28] 90% | residual activity [29] 100% | residual activity [30] 100% | residual activity [31] 100% | residual activity [32] 91% | residual activity [33] 100% | residual activity [34] 100% | residual activity [35] 100% | residual activity [36] 100% | residual activity [37] 100% | residual activity [38] 100% | residual activity [39] 100% | inhibition [41] 41.2% | residual activity [42] 100% | residual activity [43] 100% | residual activity [44] 100% | residual activity [45] 100%

O=C(NCCCC1CCCCC1)c1ccc(CNC(=O)c2cnn(-c3ccccc3)c2C(F)(F)F)cc1 [SR-321]
inactive: residual activity [1] 93% | residual activity [2] 100% | residual activity [3] 100% | residual activity [4] 100% | residual activity [5] 100% | residual activity [6] 100% | inhibition [7] 21.7% | residual activity [8] 100% | residual activity [9] 100% | residual activity [10] 100% | inhibition [11] -2.46% | residual activity [12] 96% | residual activity [13] 100% | residual activity [14] 94% | residual activity [15] 100% | residual activity [16] 100% | residual activity [17] 100% | residual activity [18] 100% | residual activity [19] 100% | residual activity [20] 100% | residual activity [21] 100% | residual activity [22] 100% | residual activity [23] 100% | residual activity [24] 97% | residual activity [25] 100% | residual activity [26] 100% | residual activity [27] 82% | residual activity [28] 95% | residual activity [29] 100% | residual activity [30] 100% | residual activity [31] 92% | residual activity [32] 100% | residual activity [33] 100% | residual activity [34] 99% | residual activity [35] 100% | residual activity [36] 100% | residual activity [37] 100% | residual activity [38] 100% | residual activity [39] 100% | residual activity [40] 100% | inhibition [41] 19.4% | residual activity [42] 58% | residual activity [43] 100% | residual activity [44] 97% | residual activity [45] 100%
